Results reported in paper PMC5529566, “The cryo-EM structure of gastric H^+,K^+-ATPase with bound BYK99, a high-affinity member of K^+-competitive, imidazo[1,2-a]pyridine inhibitors” (Scientific Reports, 2017).

Key:
[1] = biological target: H^+,K^+-ATPase N138I (Sus scrofa, UniProt P19156, N139I); assay: ATPase assay, N138I mutant
[2] = biological target: T1, H^+,K^+-ATPase I126F (Sus scrofa, UniProt P19156, I127F); assay: ATPase assay, I126F mutant; format: biochemical, pig
T1 construct: made in house; host or cells: HEK293S GnT1- cells (BacMam baculovirus transduction); permeabilised membrane fractions

[3] = biological target: H^+,K^+-ATPase L139I (Sus scrofa, UniProt P19156, L140I); assay: ATPase assay, L139I mutant
[4] = biological target: H^+,K^+-ATPase N138L (Sus scrofa, UniProt P19156, N139L); assay: ATPase assay, N138L mutant
[5] = biological target: T2, H^+,K^+-ATPase WT (Sus scrofa, UniProt P19156); assay: K^+-competitive inhibition of H^+,K^+-ATPase activity, 96-well ATPase assay, wild-type; format: biochemical, pig; conditions: WT
T2 construct: made in house; host or cells: HEK293S GnT1- cells (BacMam baculovirus transduction); permeabilised membrane fractions
T2 sequence (P19156 whole entry): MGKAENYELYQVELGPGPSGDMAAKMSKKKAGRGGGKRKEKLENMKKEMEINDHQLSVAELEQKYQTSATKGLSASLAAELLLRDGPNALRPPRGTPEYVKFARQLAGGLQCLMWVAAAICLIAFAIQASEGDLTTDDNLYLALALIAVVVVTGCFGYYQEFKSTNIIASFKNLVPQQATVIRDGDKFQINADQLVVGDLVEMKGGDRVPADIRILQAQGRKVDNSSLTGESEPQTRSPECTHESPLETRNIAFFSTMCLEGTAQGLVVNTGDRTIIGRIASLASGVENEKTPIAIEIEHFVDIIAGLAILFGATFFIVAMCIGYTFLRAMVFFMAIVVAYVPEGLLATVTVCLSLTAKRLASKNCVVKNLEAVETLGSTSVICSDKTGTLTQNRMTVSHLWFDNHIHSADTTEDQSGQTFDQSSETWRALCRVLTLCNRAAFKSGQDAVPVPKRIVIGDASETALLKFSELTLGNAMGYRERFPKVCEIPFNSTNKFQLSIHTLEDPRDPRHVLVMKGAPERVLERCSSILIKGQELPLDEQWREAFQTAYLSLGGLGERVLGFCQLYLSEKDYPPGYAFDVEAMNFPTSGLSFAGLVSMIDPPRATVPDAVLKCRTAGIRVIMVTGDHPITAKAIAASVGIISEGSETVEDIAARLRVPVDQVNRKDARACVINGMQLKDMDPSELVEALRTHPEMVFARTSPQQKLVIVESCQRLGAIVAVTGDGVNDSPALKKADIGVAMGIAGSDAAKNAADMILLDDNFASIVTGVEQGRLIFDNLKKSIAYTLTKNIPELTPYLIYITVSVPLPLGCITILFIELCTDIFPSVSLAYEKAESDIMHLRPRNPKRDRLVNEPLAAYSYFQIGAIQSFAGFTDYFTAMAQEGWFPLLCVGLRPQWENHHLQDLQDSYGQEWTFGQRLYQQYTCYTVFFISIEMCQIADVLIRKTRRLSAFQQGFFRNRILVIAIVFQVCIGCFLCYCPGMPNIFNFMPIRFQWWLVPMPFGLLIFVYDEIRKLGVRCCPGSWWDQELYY
T2 sequence (P18434 whole entry partner): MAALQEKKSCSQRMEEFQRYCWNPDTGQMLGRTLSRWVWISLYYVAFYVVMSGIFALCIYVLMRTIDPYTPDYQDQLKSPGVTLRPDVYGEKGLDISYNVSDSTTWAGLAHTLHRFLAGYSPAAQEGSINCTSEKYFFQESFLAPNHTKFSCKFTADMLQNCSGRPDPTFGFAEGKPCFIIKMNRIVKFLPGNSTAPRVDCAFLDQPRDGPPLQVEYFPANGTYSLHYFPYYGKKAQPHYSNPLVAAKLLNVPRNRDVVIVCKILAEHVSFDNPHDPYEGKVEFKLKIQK

[6] = biological target: T3, H^+,K^+-ATPase D137E (Sus scrofa, UniProt P19156, D138E); assay: ATPase assay, D137E mutant; format: biochemical, pig
T3 construct: made in house; host or cells: HEK293S GnT1- cells (BacMam baculovirus transduction), membrane fraction

[7] = biological target: H^+,K^+-ATPase D137L (Sus scrofa, UniProt P19156, D138L); assay: ATPase assay, D137L mutant
[8] = biological target: H^+,K^+-ATPase Q127A (Sus scrofa, UniProt P19156, Q128A); assay: ATPase assay, Q127A mutant
[9] = biological target: H^+,K^+-ATPase Y799F (Sus scrofa, UniProt P19156, Y800F); assay: ATPase assay, Y799F mutant
[10] = biological target: H^+,K^+-ATPase L139F (Sus scrofa, UniProt P19156, L140F); assay: ATPase assay, L139F mutant
[11] = biological target: H^+,K^+-ATPase A339S (Sus scrofa, UniProt P19156, A340S); assay: ATPase assay, A339S mutant
[12] = biological target: H^+,K^+-ATPase V338A (Sus scrofa, UniProt P19156, V339A); assay: ATPase assay, V338A mutant
[13] = biological target: H^+,K^+-ATPase N138A (Sus scrofa, UniProt P19156, N139A); assay: ATPase assay, N138A mutant
[14] = biological target: H^+,K^+-ATPase A335G (Sus scrofa, UniProt P19156, A336G); assay: ATPase assay, A335G mutant
Chain of H^+,K^+-ATPase A335G (P19156 whole entry A336G): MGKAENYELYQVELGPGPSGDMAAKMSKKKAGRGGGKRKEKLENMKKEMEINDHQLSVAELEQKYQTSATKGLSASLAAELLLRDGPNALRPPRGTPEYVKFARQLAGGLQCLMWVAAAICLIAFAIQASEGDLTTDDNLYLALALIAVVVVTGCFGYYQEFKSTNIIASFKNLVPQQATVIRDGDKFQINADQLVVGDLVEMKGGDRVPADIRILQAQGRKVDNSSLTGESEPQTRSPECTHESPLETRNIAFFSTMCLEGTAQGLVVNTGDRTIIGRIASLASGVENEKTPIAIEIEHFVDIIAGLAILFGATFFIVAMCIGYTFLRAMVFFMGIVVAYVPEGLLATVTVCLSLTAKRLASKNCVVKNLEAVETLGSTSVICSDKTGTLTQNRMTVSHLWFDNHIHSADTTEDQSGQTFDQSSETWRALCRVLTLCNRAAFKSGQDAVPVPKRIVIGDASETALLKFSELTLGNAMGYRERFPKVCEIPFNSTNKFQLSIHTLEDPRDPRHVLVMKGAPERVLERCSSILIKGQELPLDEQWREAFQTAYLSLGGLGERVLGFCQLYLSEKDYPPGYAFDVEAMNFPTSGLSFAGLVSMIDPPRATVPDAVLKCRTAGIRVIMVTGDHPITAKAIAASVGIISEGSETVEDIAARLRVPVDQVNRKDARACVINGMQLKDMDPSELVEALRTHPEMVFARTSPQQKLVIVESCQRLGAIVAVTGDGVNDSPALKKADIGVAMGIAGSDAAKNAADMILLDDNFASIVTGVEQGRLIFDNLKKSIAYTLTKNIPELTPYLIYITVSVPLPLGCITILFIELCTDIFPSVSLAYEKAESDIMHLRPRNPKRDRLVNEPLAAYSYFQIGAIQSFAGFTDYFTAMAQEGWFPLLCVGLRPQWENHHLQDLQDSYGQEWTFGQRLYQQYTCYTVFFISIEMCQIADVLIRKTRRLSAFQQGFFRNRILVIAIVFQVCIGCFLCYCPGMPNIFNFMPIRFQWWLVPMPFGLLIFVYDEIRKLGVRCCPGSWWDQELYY
Chain of H^+,K^+-ATPase A335G (P18434 whole entry partner): as the sequence (P18434 whole entry partner) above

[15] = biological target: T4, H^+,K^+-ATPase I126A (Sus scrofa, UniProt P19156, I127A); assay: ATPase assay, I126A mutant; format: biochemical, pig
T4 construct: made in house; host or cells: HEK293S GnT1- cells (BacMam baculovirus transduction); permeabilised membrane fractions
T4 sequence (P19156 whole entry I127A): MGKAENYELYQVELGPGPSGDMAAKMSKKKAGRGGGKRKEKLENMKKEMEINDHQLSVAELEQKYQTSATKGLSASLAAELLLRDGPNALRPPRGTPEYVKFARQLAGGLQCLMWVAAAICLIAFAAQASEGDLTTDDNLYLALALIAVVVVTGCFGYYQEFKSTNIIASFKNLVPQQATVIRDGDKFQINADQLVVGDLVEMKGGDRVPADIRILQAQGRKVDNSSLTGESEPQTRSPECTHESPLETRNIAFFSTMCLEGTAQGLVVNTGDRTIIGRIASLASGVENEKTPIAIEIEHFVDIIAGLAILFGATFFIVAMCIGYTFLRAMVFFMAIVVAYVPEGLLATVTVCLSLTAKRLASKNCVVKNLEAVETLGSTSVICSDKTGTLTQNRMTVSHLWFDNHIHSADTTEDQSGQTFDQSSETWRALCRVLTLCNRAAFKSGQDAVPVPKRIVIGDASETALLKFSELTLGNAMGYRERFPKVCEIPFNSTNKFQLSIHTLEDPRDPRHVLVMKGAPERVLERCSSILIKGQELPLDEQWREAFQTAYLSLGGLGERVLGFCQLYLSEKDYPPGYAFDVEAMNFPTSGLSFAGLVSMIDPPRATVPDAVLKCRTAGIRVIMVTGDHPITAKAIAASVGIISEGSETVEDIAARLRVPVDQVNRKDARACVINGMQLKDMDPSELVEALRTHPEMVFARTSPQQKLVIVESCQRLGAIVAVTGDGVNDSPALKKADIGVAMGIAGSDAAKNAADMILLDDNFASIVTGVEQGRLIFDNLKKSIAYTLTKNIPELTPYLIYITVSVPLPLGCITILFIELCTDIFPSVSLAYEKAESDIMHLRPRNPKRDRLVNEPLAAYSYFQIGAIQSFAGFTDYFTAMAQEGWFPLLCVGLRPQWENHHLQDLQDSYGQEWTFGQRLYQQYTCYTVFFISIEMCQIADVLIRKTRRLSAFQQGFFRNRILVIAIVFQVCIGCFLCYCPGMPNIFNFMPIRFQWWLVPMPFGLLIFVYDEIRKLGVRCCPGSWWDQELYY
T4 sequence (P18434 whole entry partner): as the sequence (P18434 whole entry partner) above

[16] = biological target: H^+,K^+-ATPase Y799A (Sus scrofa, UniProt P19156, Y800A); assay: ATPase assay, Y799A mutant
[17] = biological target: H^+,K^+-ATPase Q127F (Sus scrofa, UniProt P19156, Q128F); assay: ATPase assay, Q127F mutant
[18] = biological target: H^+,K^+-ATPase Y140A (Sus scrofa, UniProt P19156, Y141A); assay: ATPase assay, Y140A mutant
[19] = biological target: H^+,K^+-ATPase D136A (Sus scrofa, UniProt P19156, D137A); assay: ATPase assay, D136A mutant
[20] = biological target: H^+,K^+-ATPase N138D (Sus scrofa, UniProt P19156, N139D); assay: ATPase assay, N138D mutant
[21] = biological target: H^+,K^+-ATPase L139A (Sus scrofa, UniProt P19156, L140A); assay: ATPase assay, L139A mutant
[22] = biological target: H^+,K^+-ATPase L809F (Sus scrofa, UniProt P19156, L810F); assay: ATPase assay, L809F mutant
Chain of H^+,K^+-ATPase L809F (P19156 whole entry L810F): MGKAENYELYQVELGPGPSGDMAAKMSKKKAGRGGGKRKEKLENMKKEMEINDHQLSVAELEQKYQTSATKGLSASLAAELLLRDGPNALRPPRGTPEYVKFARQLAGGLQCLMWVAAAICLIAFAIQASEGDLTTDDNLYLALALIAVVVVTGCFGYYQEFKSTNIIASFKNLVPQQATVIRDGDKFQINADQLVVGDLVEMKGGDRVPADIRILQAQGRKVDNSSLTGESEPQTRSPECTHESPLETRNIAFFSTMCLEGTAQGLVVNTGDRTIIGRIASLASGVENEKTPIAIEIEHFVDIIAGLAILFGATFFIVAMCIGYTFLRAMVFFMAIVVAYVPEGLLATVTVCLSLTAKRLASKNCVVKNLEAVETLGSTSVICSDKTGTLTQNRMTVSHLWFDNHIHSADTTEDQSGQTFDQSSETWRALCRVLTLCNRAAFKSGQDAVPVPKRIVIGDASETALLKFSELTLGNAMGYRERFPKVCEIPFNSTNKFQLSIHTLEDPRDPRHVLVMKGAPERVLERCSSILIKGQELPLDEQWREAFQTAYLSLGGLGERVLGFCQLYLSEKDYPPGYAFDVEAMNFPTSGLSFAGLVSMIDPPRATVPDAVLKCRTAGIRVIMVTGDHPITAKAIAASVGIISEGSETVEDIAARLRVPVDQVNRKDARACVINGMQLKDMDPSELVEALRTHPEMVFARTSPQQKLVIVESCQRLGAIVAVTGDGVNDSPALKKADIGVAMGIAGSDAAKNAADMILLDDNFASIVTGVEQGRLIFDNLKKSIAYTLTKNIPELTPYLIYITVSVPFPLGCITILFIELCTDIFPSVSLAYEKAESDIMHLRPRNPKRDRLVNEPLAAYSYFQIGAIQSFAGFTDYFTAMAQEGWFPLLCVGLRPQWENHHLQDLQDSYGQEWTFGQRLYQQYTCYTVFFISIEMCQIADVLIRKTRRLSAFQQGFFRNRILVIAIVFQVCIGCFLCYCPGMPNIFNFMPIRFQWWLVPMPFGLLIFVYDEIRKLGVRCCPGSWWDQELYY
Chain of H^+,K^+-ATPase L809F (P18434 whole entry partner): as the sequence (P18434 whole entry partner) above

[23] = biological target: H^+,K^+-ATPase D137N/N138D (Sus scrofa, UniProt P19156, D138N/N139D); assay: ATPase assay, D137N/N138D mutant
[24] = biological target: H^+,K^+-ATPase D137F (Sus scrofa, UniProt P19156, D138F); assay: ATPase assay, D137F mutant
[25] = biological target: H^+,K^+-ATPase D136I (Sus scrofa, UniProt P19156, D137I); assay: ATPase assay, D136I mutant
[26] = biological target: H^+,K^+-ATPase Y140L (Sus scrofa, UniProt P19156, Y141L); assay: ATPase assay, Y140L mutant

Question: For `Cc1nc2c3c(ccn2c1C)[C@@H](O)[C@H](O)[C@@H](c1ccccc1)N3` [BYK99], which Ki [1] is on record?
Answer: Its Ki is 34 ± 8 nM.

Question: And the “-fold increase in K i compared with wild-type” value (“-fold increase in K i” below) ([1]; N138I)?
Answer: Its value is 5.9 fold.

Question: And the “-fold increase in K i” value ([2]; I126F)?
Answer: Its value is 4.1 fold.

Question: And the Ki ([2]; I126F (M1), high H^+-ATPase activity, K i determined by K m/V max plot)?
Answer: The Ki was 24 ± 15 nM.

Question: And the Ki [3]?
Answer: The Ki was 2.6 ± 0.2 nM.

Question: And the “-fold increase in K i” value ([3]; L139I)?
Answer: Its value is 0.4 fold.

Question: What about the Ki [4] of the same compound?
Answer: Its Ki is 1300 ± 500 nM.

Question: And the “-fold increase in K i” value ([4]; N138L)?
Answer: The value was 220 fold.

Question: And the “-fold increase in K i” value [5]?
Answer: Its value is 1.0 fold.

Question: What about the Ki ([5]; global fitting, mean ± SEM) of the same compound?
Answer: Its Ki is 5.8 ± 0.6 nM.

Question: What about the “-fold increase in K i” value [6] of the same compound?
Answer: Its value is 9.8 fold.

Question: What about the Ki ([6]; high H^+-ATPase activity, K i' determined by K m/V max plot) of the same compound?
Answer: The Ki was 57 ± 16 nM.

Question: And the Ki [7]?
Answer: Its Ki is 220 ± 40 nM.

Question: What about the “-fold increase in K i” value ([7]; D137L) of the same compound?
Answer: The value was 38 fold.

Question: And the Ki [8]?
Answer: Its Ki is 19 ± 1 nM.

Question: What about the “-fold increase in K i” value ([8]; Q127A) of the same compound?
Answer: Its value is 3.3 fold.

Question: What about the Ki [9] of the same compound?
Answer: Its Ki is 110 ± 10 nM.

Question: What about the “-fold increase in K i” value ([9]; Y799F) of the same compound?
Answer: Its value is 19 fold.

Question: What about the Ki [10] of the same compound?
Answer: The Ki was 18 ± 3 nM.

Question: What about the “-fold increase in K i” value ([10]; L139F) of the same compound?
Answer: Its value is 3.1 fold.

Question: What about the Ki [11] of the same compound?
Answer: The Ki was 21 ± 1 nM.

Question: And the “-fold increase in K i” value ([11]; A339S)?
Answer: Its value is 3.6 fold.

Question: And the Ki [12]?
Answer: Its Ki is 50 ± 7 nM.

Question: And the “-fold increase in K i” value ([12]; V338A)?
Answer: The value was 8.6 fold.

Question: And the Ki [13]?
Answer: Its Ki is 1.4 ± 0.3 nM.

Question: And the “-fold increase in K i” value ([13]; N138A)?
Answer: Its value is 0.2 fold.

Question: And the Ki [14]?
Answer: Its Ki is 1.2 ± 0.1 nM.

Question: What about the “-fold increase in K i” value ([14]; A335G) of the same compound?
Answer: The value was 0.2 fold.

Question: And the fold increased affinity ([14]; A335G vs WT)?
Answer: Its fold increased affinity is 5 fold.

Question: And the “-fold increase in K i” value ([15]; I126A)?
Answer: Its value is 19 fold.

Question: What about the Ki ([15]; I126A (M1), high H^+-ATPase activity, K i determined by K m/V max plot) of the same compound?
Answer: Its Ki is 110 ± 50 nM.

Question: What about the Ki [16] of the same compound?
Answer: The Ki was greater than 1000 nM.

Question: And the “-fold increase in K i” value ([16]; Y799A)?
Answer: The value was greater than 170 fold.

Question: And the Ki [17]?
Answer: Its Ki is 41 ± 7 nM.

Question: What about the “-fold increase in K i” value ([17]; Q127F) of the same compound?
Answer: Its value is 7.1 fold.

Question: And the Ki [18]?
Answer: Its Ki is 25 ± 3 nM.

Question: And the “-fold increase in K i” value ([18]; Y140A)?
Answer: Its value is 4.3 fold.

Question: And the Ki [19]?
Answer: The Ki was 10 ± 1 nM.

Question: What about the “-fold increase in K i” value ([19]; D136A) of the same compound?
Answer: Its value is 1.7 fold.

Question: And the Ki [20]?
Answer: The Ki was 7.7 ± 0.7 nM.

Question: What about the “-fold increase in K i” value ([20]; N138D) of the same compound?
Answer: The value was 1.3 fold.

Question: And the Ki [21]?
Answer: Its Ki is 14 ± 2 nM.

Question: What about the “-fold increase in K i” value ([21]; L139A) of the same compound?
Answer: Its value is 2.4 fold.

Question: And the Ki [22]?
Answer: Its Ki is 850 ± 130 nM.

Question: And the “-fold increase in K i” value ([22]; L809F)?
Answer: Its value is 150 fold.

Question: What about the Ki [23] of the same compound?
Answer: The Ki was 110 ± 10 nM.

Question: And the “-fold increase in K i” value ([23]; D137N/N138D)?
Answer: The value was 19 fold.

Question: And the Ki [24]?
Answer: The Ki was 640 ± 110 nM.

Question: What about the “-fold increase in K i” value ([24]; D137F) of the same compound?
Answer: The value was 110 fold.

Question: What about the Ki [25] of the same compound?
Answer: Its Ki is 15 ± 2 nM.

Question: What about the “-fold increase in K i” value ([25]; D136I) of the same compound?
Answer: Its value is 2.6 fold.

Question: What about the Ki [26] of the same compound?
Answer: The Ki was 5.3 ± 0.4 nM.

Question: And the “-fold increase in K i” value ([26]; Y140L)?
Answer: Its value is 0.9 fold.
